Source: US20100173912A1, “Novel Compound” (priority 2007, published 2010)

Molecular target: T1, human mGluR5b (Homo sapiens, UniProt P41594)
T1 construct: expressed in transfected cells; host or cells: CHO cells, pSwitch vector (Invitrogen), expression induced with mifepristone
Assay: FLIPR positive modulator assay in CHO cells expressing human mGluR5b
Format: cell-based
Conditions: FLIPR second read after EC20 glutamate, normalised to EC20 (basal) and EC100 (total) glutamate response, read-out: pEC50 in the human mGluR5b positive modulator assay (converted)
Description: CHO cells expressing human mGluR5b (pSwitch vector, Invitrogen) were maintained in DMEM media with 10% Foetal Calf Serum, 0.005% Hygromycin, Proline(10 mg/mL), Zeocin(0.005%). The media was replaced between subculturing days to remove any excess glutamate build up that may cause receptor desensitization. 24 hrs prior to conducting the assay, cells were plated in 384-well black flat clear bottom plates and mGluR5 expression was induced with the addition of 0.01 nM mifepristone. The plates were incubated at 37° C. to give a monolayer with a confluency of 80%.
The tissue culture medium was aspirated using a Tecan power washer. Cells were loaded with 30 μl of Hanks Balanced Salts (HBSS)+[…]+2 μM Fluo-4+250 μM Brilliant Black+0.01% Pluronic acid. The cells were incubated at 37° C. for 2 hours to allow uptake of the dye Fluo-4AM into the cell cytosol, which was converted to Fluo-4 by natural esterases cleaving the AM region preventing the Fluo-4 leaving the cell. […]
A 0.38 M solution of glutamic acid was prepared in water. […] A fluorescent reading was made. […] A second fluorescent read was made. […]
The compound was added ‘on line’ to the cells and a first FLIPR read was made to estimate agonism. The cell plates were then incubated at 37° C. for 5-10 min after which the chosen EC20 Glutamate was added ‘on line’ and a second FLIPR reading made to estimate modulation. […]

T1 sequence (P41594 21-1212): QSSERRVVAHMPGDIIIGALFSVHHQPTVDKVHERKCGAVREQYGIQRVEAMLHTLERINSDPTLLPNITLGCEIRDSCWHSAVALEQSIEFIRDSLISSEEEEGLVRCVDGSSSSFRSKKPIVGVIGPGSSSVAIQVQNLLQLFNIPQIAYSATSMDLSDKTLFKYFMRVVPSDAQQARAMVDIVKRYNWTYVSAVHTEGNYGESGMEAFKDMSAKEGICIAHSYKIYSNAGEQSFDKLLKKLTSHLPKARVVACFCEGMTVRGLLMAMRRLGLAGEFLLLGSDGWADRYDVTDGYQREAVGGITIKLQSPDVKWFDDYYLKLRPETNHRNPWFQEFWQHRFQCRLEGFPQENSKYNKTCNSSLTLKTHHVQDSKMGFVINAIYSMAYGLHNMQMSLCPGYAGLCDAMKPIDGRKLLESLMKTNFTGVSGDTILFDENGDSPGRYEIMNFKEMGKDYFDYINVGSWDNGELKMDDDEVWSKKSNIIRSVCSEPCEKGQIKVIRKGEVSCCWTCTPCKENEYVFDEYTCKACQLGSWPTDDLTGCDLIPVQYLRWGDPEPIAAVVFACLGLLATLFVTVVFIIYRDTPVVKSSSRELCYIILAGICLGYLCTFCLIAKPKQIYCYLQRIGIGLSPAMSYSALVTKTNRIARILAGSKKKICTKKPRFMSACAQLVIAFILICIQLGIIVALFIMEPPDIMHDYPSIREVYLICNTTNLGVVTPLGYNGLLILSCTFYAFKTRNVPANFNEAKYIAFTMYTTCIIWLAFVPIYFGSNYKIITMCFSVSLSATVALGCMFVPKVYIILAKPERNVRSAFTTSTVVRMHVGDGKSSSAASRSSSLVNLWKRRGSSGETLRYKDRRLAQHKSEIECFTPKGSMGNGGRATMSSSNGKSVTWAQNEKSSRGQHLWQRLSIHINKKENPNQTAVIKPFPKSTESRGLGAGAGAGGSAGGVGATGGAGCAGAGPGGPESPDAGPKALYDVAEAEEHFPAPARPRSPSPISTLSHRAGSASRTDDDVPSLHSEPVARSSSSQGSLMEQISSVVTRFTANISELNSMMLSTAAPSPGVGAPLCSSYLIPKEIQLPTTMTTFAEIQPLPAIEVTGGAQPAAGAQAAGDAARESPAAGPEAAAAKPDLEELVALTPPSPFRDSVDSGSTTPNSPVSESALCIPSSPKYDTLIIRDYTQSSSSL

`N#Cc1cc(F)ccc1N1CCN(C(=O)COCc2ccc(F)cc2)CC1` [5-fluoro-2-[4-({[(4-fluorophenyl)methyl]oxy}acetyl)-1-piperazinyl]benzonitrile] was tested. Which EC50 did it give?
The EC50 was less than 1 µM.
